Experimental data published in publication PMC12292992, “Betulinic Acid ω-Triphenylphosphonium Alkyl Esters: Antiproliferative Activities and In Silico Pharmacokinetic Profiles” (Biomedicines, 2025).

Columns and labels:
HL-60 cells = experiment: MTT cell viability assay, leukemia; format: cell-based; conditions: Homo sapiens, HL-60, 72 h
Procedure: (§1) Human cell lines were obtained from the American Type Culture Collection (ATCC, Manassas, VA, USA). Normal lung MRC-5 fibroblasts (ATCC® CCL-171™), SK-MES-1 lung cancer cells (ATCC® HTB-58™), and J82 bladder carcinoma cells (ATCC® HTB-1™) were grown as monolayers in Eagle’s minimum essential medium (MEM) with Earle’s salts, 2 mM L-glutamine, and 1.5 g/L sodium bicarbonate. Gastric epithelial AGS cells (ATCC® CRL-1739™) were grown as monolayers in Ham’s F-12 medium containing 1 mM L-glutamine and 1.5 g/L sodium bicarbonate. Promyelocytic leukemia HL-60 (ATCC® CCL-240™), colorectal adenocarcinoma HCT-15 (ATCC® CCL-225™), metastatic colorectal COLO205 (ATCC® CCL-222™), and breast cancer AU565 (ATCC® CRL-2351™, ER^−-HER2/neu^+) cells were grown in suspension in an RPMI-1640 medium containing 1 mM sodium pyruvate and 2.0 g/L sodium bicarbonate. Human breast cancer MCF-7 (ATCC® HTB-22™, ER^+-HER2/neu^−) and MDA-MB-231 (ATCC® HTB-26™, ER^−-HER2/neu^−) cells were grown as monolayers in DMEM medium. All media were supplemented with 10% heat-inactivated fetal bovine serum (HI-FBS), 100 IU/mL penicillin G, and 100 µg/mL streptomycin. Cells were maintained at 37 °C in a humidified incubator with 5% CO2.
(§2) MRC-5, SK-MES-1, J82, and AGS cells were seeded at a density of 5 × 10^4 cells/mL in 96-well plates. COLO205, HCT-15, MCF-7, MDA-MB-231, and AU565 cells were seeded at 1 × 10^5 cells/mL, while HL-60 cells were plated at 3 × 10^5 cells/mL. A volume of 100 µL of the cell suspension was added to each well. After 24 h, the compounds were added in increasing concentrations (ranging from 0 to 100 µM), and cells were incubated for 24, 48, or 72 h. The compounds were dissolved in DMSO and diluted in complete medium to a final concentration of 0.5% DMSO. Cells treated with 0.5% DMSO in complete medium were used as viability controls (100%). Etoposide (98% purity, Sigma-Aldrich, St. Louis, MO, USA) was used as the reference compound. Each concentration was tested in quadruplicate, and each experiment was performed twice using independent cell preparations. At the end of the incubation period, cell viability was determined using the MTT reduction assay. The results were transformed into percentages relative to controls, and IC50 values were obtained graphically from the dose–response curves. Results are presented as IC50 values ± standard deviation (SD).

HCT-15 cells [1] = experiment: MTT cell viability assay, colorectal carcinoma; format: cell-based, human; conditions: for IC50: Homo sapiens
Procedure: as §1, §2

COLO205 cells [2] = experiment: MTT cell viability assay, metastatic colorectal cancer; format: cell-based, human; conditions: for IC50: Homo sapiens, COLO 205
Procedure: as §1, §2

J82 cells = experiment: MTT cell viability assay, bladder carcinoma; format: cell-based; conditions: Homo sapiens, J82, 72 h
Procedure: as §1, §2

[3] = system: MRC-5 normal human lung fibroblasts; experiment: MTT cell viability assay, normal lung fibroblasts; format: cell-based; conditions: MRC5, MRC-5, 72 h
Procedure: as §1, §2

MDA-MB-231 cells = experiment: MTT cell viability assay, mammary carcinoma; format: cell-based; conditions: Homo sapiens
Procedure: as §1, §2

MCF-7 cells = experiment: MTT cell viability assay, mammary carcinoma; format: cell-based; conditions: Homo sapiens, MCF7
Procedure: as §1, §2

human cancer cell lines = experiment: MTT cell viability, summary over the human cancer cell lines; format: cell-based; conditions: summary statement
Procedure: as §1, §2

COLO205 cells [4] = experiment: LDH release assay; format: cell-based, human; conditions: COLO205, 0.5–5 μM, 24 h
Procedure: (§3) COLO205 and HCT-15 cells were cultured at 2 × 10^4 cells/well in 96-well plates and incubated for 24 h. Afterwards, BA-C4-TPP^+Br^− was added in increasing concentrations (0.5, 1, 2.5, and 5 µM) for 24 h. Finally, the supernatant of each well was transferred to a new plate (10 µL/well), and the LDH reaction mix was added (100 µL/well). The plate was incubated for 20 min at room temperature, and the absorbance of each well was measured using a Varioskan® Flash plate reader (Thermo Scientific, Waltham, MA, USA) at 450 nm. All values are expressed as a percentage of LDH activity relative to cells incubated with Cell Lysis solution (provided in the kit) for 24 h.

HCT-15 cells [5] = experiment: LDH release assay; format: cell-based, human
Procedure: as §3

COLO205 cells [6] = experiment: Annexin V/propidium iodide double staining, flow cytometry; format: cell-based, human; conditions: 24 h
Procedure: (§4) The type of cell death induced by the BA-C4-TPP^+Br^− was assessed by flow cytometry, using Annexin V/propidium iodide (AV/PI) double staining, following the instructions of the Annexin V-FITC Apoptosis Detection Kit (Abcam, Cambridge, UK). Cells were cultured at 5 × 10^4 cells/well in 24-well plates and incubated overnight. Afterwards, cells were treated with increasing concentrations of BA-C4-TPP^+Br^− (1, 2.5, 5, or 10 µM for COLO205 and HCT-15 cells) for 24 h. Finally, cells were trypsinized, resuspended in annexin V binding buffer 1X, adding AV and PI, and incubated for 5 min at room temperature, protected from light. Control corresponds to cells incubated with DMSO 1%. Fluorescence of each probe was assessed by flow cytometry (FACSAria®III, BD Biosciences, Franklin Lakes, NJ, USA). Wavelengths used were 488Ex/530Em nm for AV-FITC and 488Ex/575Em nm for PI. Results are expressed as total apoptotic cells (percentage of AV+/PI− and AV+/PI+ cells), necrotic cells (percentage of AV-/PI+ cells), and live cells (percentage of AV-/PI− cells). Cyflogic software (non-commercial 6th version, CyFlo Ltd., Turku, Finland) was used for data processing.

HCT-15 cells [7] = experiment: as above; format: cell-based, human; conditions: 24 h
Procedure: as §4

With C=C(C)[C@@H]1CC[C@]2(C(=O)OCCCC[P+](c3ccccc3)(c3ccccc3)c3ccccc3)CC[C@]3(C)[C@H](CC[C@@H]4[C@@]5(C)CC[C@H](O)C(C)(C)[C@@H]5CC[C@]43C)[C@@H]12 [BA-C4-TPP^+Br^−, 4-Triphenylphosphoniobutyl 3β-hydroxylup-20(29)-en-28-oate bromide] the IC50 (HL-60 cells) was 220 ± 40 nM, the “increase in potency compared to non-modified BA scaffold” value (HCT-15 cells [1]; HCT-15 cells at 72 h) was “approximately 7 fold” and the IC50 (HCT-15 cells [1]; HCT-15, 24 h) was 1460 ± 170 nM. For the same compound, the IC50 (HCT-15 cells [1]; HCT-15, 48 h) was 610 ± 160 nM, the IC50 (HCT-15 cells [1]; HCT-15, 72 h) was 520 ± 120 nM and the “increase in potency compared to non-modified BA scaffold” value (COLO205 cells [2]; COLO205 cells at 72 h) was about 264 fold. It also gave an IC50 (COLO205 cells [2]; COLO205, 24 h) of 880 ± 220 nM, an IC50 (COLO205 cells [2]; COLO205, 48 h) of 450 ± 90 nM and an IC50 (COLO205 cells [2]; COLO205, 72 h) of 130 ± 10 nM. The IC50 (J82 cells) was 840 ± 20 nM, the IC50 [3] was 210 ± 10 nM and the IC50 (MDA-MB-231 cells; MDA-MB-231, 24 h) was 1700 ± 440 nM. For the same compound, the IC50 (MDA-MB-231 cells; MDA-MB-231, 48 h) was 1010 ± 90 nM, the IC50 (MCF-7 cells; MCF-7, 24 h) was 3880 ± 450 nM and the IC50 (MCF-7 cells; MCF-7, 48 h) was 950 ± 340 nM. The IC50 (human cancer cell lines; Homo sapiens, 48 and 72 h of treatment) was under 1000 nM, the increase in potency (human cancer cell lines; nine human cancer cell lines, relative to BA) was “over 100 fold” and the LDH release (COLO205 cells [4]) was “no significant LDH release”. The LDH release (HCT-15 cells [5]; HCT-15, 2.5 μM, 24 h, relative to Cell Lysis solution) was 18%, the “LDH release relative to control (DMSO)” value (HCT-15 cells [5]; HCT-15, 24 h) was “double the control (DMSO) value” and the apoptosis induction (COLO205 cells [6]; COLO205, 1 μM) was about 14%. For the same compound, the apoptosis induction (COLO205 cells [6]; COLO205, 2.5 μM) was about 34%, the necrotic cell death (COLO205 cells [6]; COLO205, 5 μM) was 15% and the necrotic cell death (COLO205 cells [6]; COLO205, initial concentration (1 μM)) was 5%. For the same compound, the apoptosis induction (HCT-15 cells [7]; HCT-15, 2.5 μM) was 12%, the necrosis induction (HCT-15 cells [7]; HCT-15, 2.5 μM) was 7% and the necrotic cell death (HCT-15 cells [7]; HCT-15, 10 μM) was about 30%.
